Measured values as given in ChEMBL document CHEMBL1201862, “PubChem BioAssay data set” (2004).
Active and inactive are the calls of the source.

What was measured:
[1] = biological target: Induced myeloid leukemia cell differentiation protein Mcl-1 (Homo sapiens, UniProt Q07820); type: functional
ORF 73 = ORF 73 (Human herpesvirus 8, UniProt O40947); test: inhibitors of C-LANA binding to LBS DNA, dose response, biochemical, fluorescence polarization, cherry-picked samples (AID 504725); set-up: species or system Human gammaherpesvirus 8;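 note: fluorescence polarization of a labeled DNA duplex reporting LANA DNA binding; potency is for inhibitors that block LANA binding to the DNA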
[2] = biological target: Cyclin-dependent kinase 5/CDK5 activator 1 (Homo sapiens, UniProt Q00535); test: CDK5/p35 kinase inhibitors, dose response, biochemical, cherry-picked samples, set 2 (AID 504545)
[3] = biological target: T1, Endoribonuclease toxin MazF (Escherichia coli K-12, UniProt P0AE70); test: fluorescent RNA oligo signal without MazF, dose response, counter-screen for MazEF activator project, biochemical, fluorescence, single-stranded RNase substrate (AID 588502); type: functional
T1 sequence (P0AE70 whole entry): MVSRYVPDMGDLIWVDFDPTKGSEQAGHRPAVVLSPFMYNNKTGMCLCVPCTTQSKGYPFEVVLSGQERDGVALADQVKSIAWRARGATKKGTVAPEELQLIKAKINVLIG

[4] = biological target: Polyadenylate-binding protein 1 (Homo sapiens, UniProt P11940); test: PABP1 MLLE–PAM2 interaction inhibitors, dose response, miRNA deadenylation inhibitor project, biochemical, fluorescence polarization, Cy5-PAM2 peptide, secondary (AID 602260); type: functional; settings: read-out: IC50_Mean
[5] = biological target: T2, 1-phosphatidylinositol 4,5-bisphosphate phosphodiesterase gamma-1 (Homo sapiens, UniProt P19174); test: Counterscreen for inhibitors of phospholipase C isozymes (PLC-B3): Fluorescence-based biochemical high throughput dose response assay to identify inhibitors of phospholipase C isozymes (PLC-gamma1).
T2 sequence (P19174 whole entry): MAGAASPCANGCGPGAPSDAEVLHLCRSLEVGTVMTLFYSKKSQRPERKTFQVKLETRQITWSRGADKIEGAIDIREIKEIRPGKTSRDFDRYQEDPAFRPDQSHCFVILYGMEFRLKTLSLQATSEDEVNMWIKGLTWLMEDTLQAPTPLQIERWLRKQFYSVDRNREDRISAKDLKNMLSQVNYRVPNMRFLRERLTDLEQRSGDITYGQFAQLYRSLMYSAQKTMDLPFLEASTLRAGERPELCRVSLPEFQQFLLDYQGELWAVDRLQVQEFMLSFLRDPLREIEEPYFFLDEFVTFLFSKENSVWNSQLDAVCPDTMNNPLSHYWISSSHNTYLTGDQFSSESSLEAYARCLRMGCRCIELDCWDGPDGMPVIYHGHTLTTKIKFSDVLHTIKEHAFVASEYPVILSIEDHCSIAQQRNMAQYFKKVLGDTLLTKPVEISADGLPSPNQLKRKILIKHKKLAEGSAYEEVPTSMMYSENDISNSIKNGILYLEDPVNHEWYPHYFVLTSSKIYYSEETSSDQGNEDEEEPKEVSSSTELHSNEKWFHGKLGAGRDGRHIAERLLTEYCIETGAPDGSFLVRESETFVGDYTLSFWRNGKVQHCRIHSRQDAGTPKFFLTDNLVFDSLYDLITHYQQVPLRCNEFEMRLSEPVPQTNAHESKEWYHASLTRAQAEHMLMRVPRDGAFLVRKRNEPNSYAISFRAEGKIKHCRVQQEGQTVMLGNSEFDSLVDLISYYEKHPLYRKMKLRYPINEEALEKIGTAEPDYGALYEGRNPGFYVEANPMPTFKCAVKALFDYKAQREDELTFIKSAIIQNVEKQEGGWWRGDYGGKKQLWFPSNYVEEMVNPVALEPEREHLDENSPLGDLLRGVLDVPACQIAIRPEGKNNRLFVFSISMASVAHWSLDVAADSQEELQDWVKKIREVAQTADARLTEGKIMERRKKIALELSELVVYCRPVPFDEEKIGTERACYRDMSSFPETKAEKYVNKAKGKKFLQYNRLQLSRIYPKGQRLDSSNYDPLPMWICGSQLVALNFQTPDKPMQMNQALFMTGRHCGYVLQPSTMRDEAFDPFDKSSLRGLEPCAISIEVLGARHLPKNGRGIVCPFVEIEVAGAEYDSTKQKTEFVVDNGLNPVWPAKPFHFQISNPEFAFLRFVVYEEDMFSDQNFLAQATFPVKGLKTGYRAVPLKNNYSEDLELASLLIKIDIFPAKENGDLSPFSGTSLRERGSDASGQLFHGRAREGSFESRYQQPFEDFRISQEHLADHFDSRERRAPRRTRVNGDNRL

Cyclin-dependent kinase 5/CDK5 activator 1, sequence (Q00535 whole entry): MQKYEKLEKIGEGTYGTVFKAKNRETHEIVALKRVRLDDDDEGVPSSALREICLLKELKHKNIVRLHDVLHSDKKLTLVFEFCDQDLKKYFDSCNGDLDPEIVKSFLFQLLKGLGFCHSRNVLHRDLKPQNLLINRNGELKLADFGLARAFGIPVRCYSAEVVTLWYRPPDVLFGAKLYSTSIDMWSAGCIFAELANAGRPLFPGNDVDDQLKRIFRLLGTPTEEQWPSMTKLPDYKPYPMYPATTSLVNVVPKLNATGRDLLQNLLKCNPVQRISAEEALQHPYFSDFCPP
Cyclin-dependent kinase 5/CDK5 activator 1, sequence (Q15078 whole entry, further chain): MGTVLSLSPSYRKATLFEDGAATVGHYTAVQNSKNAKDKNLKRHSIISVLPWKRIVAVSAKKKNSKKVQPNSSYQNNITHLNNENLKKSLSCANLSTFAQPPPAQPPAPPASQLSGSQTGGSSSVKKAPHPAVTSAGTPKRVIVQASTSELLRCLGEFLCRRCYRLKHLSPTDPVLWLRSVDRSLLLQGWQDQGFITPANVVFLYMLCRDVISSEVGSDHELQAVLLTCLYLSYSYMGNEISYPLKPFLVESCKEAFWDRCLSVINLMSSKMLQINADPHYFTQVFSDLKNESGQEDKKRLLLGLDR
Polyadenylate-binding protein 1, sequence (P11940 whole entry): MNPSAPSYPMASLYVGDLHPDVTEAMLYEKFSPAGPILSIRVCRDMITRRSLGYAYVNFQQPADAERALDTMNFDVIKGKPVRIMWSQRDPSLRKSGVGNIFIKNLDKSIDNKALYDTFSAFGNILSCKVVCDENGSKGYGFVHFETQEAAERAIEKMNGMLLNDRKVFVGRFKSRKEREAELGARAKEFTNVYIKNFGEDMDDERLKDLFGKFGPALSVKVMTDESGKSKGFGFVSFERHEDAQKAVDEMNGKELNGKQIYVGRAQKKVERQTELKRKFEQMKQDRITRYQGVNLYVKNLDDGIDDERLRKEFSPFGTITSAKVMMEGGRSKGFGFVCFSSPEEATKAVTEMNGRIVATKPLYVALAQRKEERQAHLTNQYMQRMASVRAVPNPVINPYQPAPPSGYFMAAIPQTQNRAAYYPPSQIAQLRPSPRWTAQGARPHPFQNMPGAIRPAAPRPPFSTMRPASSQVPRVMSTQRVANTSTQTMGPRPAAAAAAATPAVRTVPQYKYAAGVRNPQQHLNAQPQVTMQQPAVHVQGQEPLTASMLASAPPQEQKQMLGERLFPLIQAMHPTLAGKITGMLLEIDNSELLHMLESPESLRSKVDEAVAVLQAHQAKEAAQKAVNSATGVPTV
ORF 73, sequence (O40947 whole entry): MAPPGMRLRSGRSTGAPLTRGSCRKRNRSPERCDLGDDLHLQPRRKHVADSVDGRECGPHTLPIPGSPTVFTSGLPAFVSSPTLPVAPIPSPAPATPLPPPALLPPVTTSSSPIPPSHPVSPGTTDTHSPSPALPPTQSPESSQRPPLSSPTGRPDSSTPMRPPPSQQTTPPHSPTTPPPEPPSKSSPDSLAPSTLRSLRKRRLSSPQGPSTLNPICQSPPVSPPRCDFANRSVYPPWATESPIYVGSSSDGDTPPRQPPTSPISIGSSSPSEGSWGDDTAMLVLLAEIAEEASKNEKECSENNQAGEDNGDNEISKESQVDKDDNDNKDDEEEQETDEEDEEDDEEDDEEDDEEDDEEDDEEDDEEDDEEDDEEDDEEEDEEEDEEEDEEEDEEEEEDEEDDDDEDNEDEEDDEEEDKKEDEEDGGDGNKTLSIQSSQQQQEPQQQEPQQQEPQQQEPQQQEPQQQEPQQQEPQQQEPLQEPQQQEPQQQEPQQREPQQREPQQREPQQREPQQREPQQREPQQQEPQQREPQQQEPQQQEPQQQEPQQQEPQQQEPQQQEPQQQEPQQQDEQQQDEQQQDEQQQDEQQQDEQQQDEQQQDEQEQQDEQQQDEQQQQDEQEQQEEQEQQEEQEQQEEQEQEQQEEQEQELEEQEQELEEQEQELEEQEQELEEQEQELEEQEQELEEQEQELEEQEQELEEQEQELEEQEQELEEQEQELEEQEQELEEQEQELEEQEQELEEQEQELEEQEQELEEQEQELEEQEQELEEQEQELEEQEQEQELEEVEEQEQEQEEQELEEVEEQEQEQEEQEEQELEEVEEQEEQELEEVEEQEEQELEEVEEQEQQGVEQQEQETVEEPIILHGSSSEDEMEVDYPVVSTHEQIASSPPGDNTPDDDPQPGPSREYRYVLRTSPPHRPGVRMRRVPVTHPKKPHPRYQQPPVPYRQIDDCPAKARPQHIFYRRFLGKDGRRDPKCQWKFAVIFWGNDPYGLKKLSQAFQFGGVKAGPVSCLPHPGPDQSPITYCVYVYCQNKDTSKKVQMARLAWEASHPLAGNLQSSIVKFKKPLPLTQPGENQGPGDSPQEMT
Induced myeloid leukemia cell differentiation protein Mcl-1, sequence (Q07820 whole entry): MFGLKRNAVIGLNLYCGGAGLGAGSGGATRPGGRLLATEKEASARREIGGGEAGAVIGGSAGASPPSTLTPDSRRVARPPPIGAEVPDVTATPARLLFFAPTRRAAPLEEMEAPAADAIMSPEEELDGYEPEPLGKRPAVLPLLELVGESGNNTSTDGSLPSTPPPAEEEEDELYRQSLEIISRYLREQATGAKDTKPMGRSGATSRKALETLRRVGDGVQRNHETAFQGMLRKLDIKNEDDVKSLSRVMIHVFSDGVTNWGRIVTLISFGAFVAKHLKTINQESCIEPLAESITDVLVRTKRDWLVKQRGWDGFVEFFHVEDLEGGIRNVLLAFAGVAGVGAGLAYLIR

O=c1c(O)cccc2cc(O)c(O)c(O)c12 [PURPUROGALLIN]
IC50 [1]: > 54 µM (active)
AC50 (ORF 73): 25.9 µM (active)
AC50 [2]: 23.2 µM (active)
EC50 [3]: > 99 µM (inactive)
IC50 [4]: > 66 µM (inactive)
IC50 [5]: 20.9 µM (inactive)
